Assay results reported in patent US20050112573A1, “Method of detecting toxic substance” (priority 2001, published 2005).

Test system: yeast genes (level of expressed mRNA)
Assay: DNA chip analysis of expressed mRNA of yeast genes after 2 h culture with a toxic chemical substance
Type: cell-based, Saccharomyces cerevisiae S288C
Conditions: for The level of expressed mRNA in the presence of chemical substance/ (ratio to absence of chemical substance): stress protein genes, DNA chip
Method: Yeast (Saccharomyces cerevtisiae S288C (α SUC2mal mel gap2 CUP1)) were cultured at 25° C. on YPD medium (yeast extract 1%, polypepton 2%, glucose 2%). One of toxic chemical substances was added to the cell at logarithmic growth phase, and the cell was further cultured for two hours. Cell was cultured without any chemical substance in the same condition, and was used as control. Concentrations of the chemical substances were defined to inhibit the growth of the yeast but not lead to death.
After the completion of cultivation, the culture was centrifuged to collect the cells. To the cells, sodium acetate buffer (50 mM sodium acetate, 10 mM EDTA, 1% SDS) was added, and the mixture was shaken at 65° C. for five minutes, followed by returning to room temperature, and obtaining the supernatant, which procedure was repeated two times. To the supernatant, ½ amount of a solution of phenol/chloroform was added, and the mixture was centrifuged to give a supernatant, which was added with an equal amount of chloroform, and the mixture was centrifuged to give a supernatant. To the supernatant, an equal amount of isopropanol containing 0.3 M sodium acetate was added, and the mixture was allowed to stand at room temperature for 30 minutes, after which the mixture was centrifuged to give a sediment of the whole RNAs. Seventy % ethanol was added to the sediment, and the mixture was again centrifuged to give a sediment, which was then dried and dissolved in water. mRNA was isolated from the whole RNAs as followings. In view of the fact that a poly A chain is attached to the 3′ terminus of mRNA, a polynucleotide having a poly T structure which was immobilized on the surface of latex beads was used to trap the mRNA, and then the mRNA was washed and eluted with spine column (Oligotex-dT30<Super>mRNA Purification Kit, Takara). Reverse transcription of the mRNA was conducted with a reverse transcriptase (Super Script II Reverse Transcriptase; catalogue No. 18064-014, GibcoBRL) using fluorescence-labeled nucleotides to give cDNAs that were introduced with Cy3-dUTP or Cy5-dUTP during the reverse transcription.
The labeled cDNAs were dissolved in TE buffer (10 mM Tris-HCl/1 mM EDTA, pH8.0), and the solution was dropped on the DNA chip containing the whole genes of yeast (DNA Chip Research Inc. Japan) so that the cDNAs were hybridized on the DNA chip at 65° C. for over 12 hours. The fluoresces intensity of the DNA chip was read with a scanner, and the ratio relative to the fluorescence intensity resulting from the absence of chemical substance was estimated as the following, which is shown in Tables 1 to 9: [formula]
In the Tables, “Intensity” indicated in the rightmost column is a value of the level of expressed mRNA of each gene in control cells as divided by the average level of the expressions of the whole genes.

CCCCC[C@H](O)CC(=O)CCc1ccc(O)c(OC)c1 [(13), gingerol]
The level of expressed mRNA in the presence of chemical substance/absence: YOR267C (gene YOR267C): 1.4
The level of expressed mRNA in the presence of chemical substance/absence: YOR325W (gene YOR325W): 0.6
level of expressed mRNA in the presence of chemical substance/in its absence (gene YOR336W): 2.1
level of expressed mRNA in the presence of chemical substance/in its absence (gene YOR344C): 1.8
level of expressed mRNA in the presence of chemical substance/in its absence (gene YOR347C): 1.8
The level of expressed mRNA in the presence of chemical substance/absence: YPL005W (gene YPL005W): 1.2
level of expressed mRNA in the presence of chemical substance/in its absence (gene YPL017C): 1.9
The level of expressed mRNA in the presence of chemical substance / the level in the absence of chemical substance, yeast gene YPL107W (gene YPL107W, DNA chip fluorescence ratio to control without chemical, 2 hours culture with chemical, growth-inhibiting non-lethal concentration): 0.8
The level of expressed mRNA in the presence of chemical substance / the level in the absence of chemical substance, yeast gene YPL138C (gene YPL138C, DNA chip fluorescence ratio to control without chemical, 2 hours culture with chemical, growth-inhibiting non-lethal concentration): 0.6
The level of expressed mRNA in the presence of chemical substance/absence: YPL150W (gene YPL150W): 2.1
The level of expressed mRNA in the presence of chemical substance/absence: YPL151C (gene YPL151C): 1.4
The level of expressed mRNA in the presence of chemical substance/absence: YPL152W (gene YPL152W): 1.4
The level of expressed mRNA in the presence of chemical substance/absence: YPL168W (gene YPL168W): 1.0
The level of expressed mRNA in the presence of chemical substance/absence: YPL180W (gene YPL180W): 1.5
The level of expressed mRNA in the presence of chemical substance/absence: YPL188W (gene YPL188W): 0.9
The level of expressed mRNA in the presence of chemical substance/absence: YPL221W (gene YPL221W): 1.0
The level of expressed mRNA in the presence of chemical substance/absence: YPL225W (gene YPL225W): 0.8
The level of expressed mRNA in the presence of chemical substance/absence: YPL249C (gene YPL249C): 1.8
The level of expressed mRNA in the presence of chemical substance/absence: YPL260W (gene YPL260W): 1.4
level of expressed mRNA in the presence of chemical substance/in its absence (gene YPL265W): 1.1
level of expressed mRNA in the presence of chemical substance/in its absence (gene YPR006C): 1.8
level of expressed mRNA in the presence of chemical substance/in its absence (gene YPR026W): 2.3
The level of expressed mRNA in the presence of chemical substance/absence: YPR049C (gene YPR049C): 1.6
The level of expressed mRNA in the presence of chemical substance/absence: YPR061C (gene YPR061C): 1.1
The level of expressed mRNA in the presence of chemical substance/absence: YPR093C (gene YPR093C): 1.4
The level of expressed mRNA in the presence of chemical substance/absence: YPR146C (gene YPR146C): 1.3
The level of expressed mRNA in the presence of chemical substance/absence: YPR148C (gene YPR148C): 1.2
The level of expressed mRNA in the presence of chemical substance/absence: YPR150W (gene YPR150W): 1.4
The level of expressed mRNA in the presence of chemical substance/absence: YPR158W (gene YPR158W): 1.6
The level of expressed mRNA in the presence of chemical substance/absence: YPR169W (gene YPR169W): 1.0
The level of expressed mRNA in the presence of chemical substance/absence: YPR172W (gene YPR172W): 1.3
The level of expressed mRNA in the presence of chemical substance/absence: YPR174C (gene YPR174C): 1.4
The level of expressed mRNA in the presence of chemical substance/The level of expressed mRNA in the absence of chemical substance (yeast gene YAR010C): 1.4
The level of expressed mRNA in the presence of chemical substance/The level of expressed mRNA in the absence of chemical substance (yeast gene YBL005W-A): 2.9
The level of expressed mRNA in the presence of chemical substance/ (ratio to absence), gene YBL038W (yeast gene YBL038W, mitochondria-located protein genes, 2 h culture with chemical): 1.0
The level of expressed mRNA in the presence of chemical substance/The level of expressed mRNA in the absence of chemical substance (yeast gene YBL041W): 2.6
The level of expressed mRNA in the presence of chemical substance/The level of expressed mRNA in the absence of chemical substance (yeast gene YBL043W): 1.8
The level of expressed mRNA in the presence of chemical substance/The level of expressed mRNA in the absence of chemical substance (yeast gene YBL078C): 5.0
The level of expressed mRNA in the presence of chemical substance/ (ratio to absence of chemical substance) (yeast gene YBL093C): 2.1
The level of expressed mRNA in the presence of chemical substance/ (in its absence), gene YBR036C (yeast gene YBR036C, ratio of DNA chip fluorescence intensity to that without chemical substance): 1.9
The level of expressed mRNA in the presence of chemical substance/ (ratio to absence of chemical substance) (yeast gene YBR044C): 1.2
The level of expressed mRNA in the presence of chemical substance/ (ratio to absence), gene YBR122C (yeast gene YBR122C, mitochondria-located protein genes, 2 h culture with chemical): 0.8
The level of expressed mRNA in the presence of chemical substance/The level of expressed mRNA in the absence of chemical substance (yeast gene YBR214W): 2.1
The level of expressed mRNA in the presence of chemical substance/ (ratio to absence), gene YBR251W (yeast gene YBR251W, mitochondria-located protein genes, 2 h culture with chemical): 1.0
The level of expressed mRNA in the presence of chemical substance/ (in its absence), gene YBR298C (yeast gene YBR298C, ratio of DNA chip fluorescence intensity to that without chemical substance): 0.8
The level of expressed mRNA in the presence of chemical substance/The level of expressed mRNA in the absence of chemical substance (yeast gene YCL020W): 3.0
The level of expressed mRNA in the presence of chemical substance/The level of expressed mRNA in the absence of chemical substance (yeast gene YCL027W): 1.1
The level of expressed mRNA in the presence of chemical substance/The level of expressed mRNA in the absence of chemical substance (yeast gene YCR004C): 1.3
The level of expressed mRNA in the presence of chemical substance/ (ratio to absence), gene YCR046C (yeast gene YCR046C, mitochondria-located protein genes, 2 h culture with chemical): 1.5
The level of expressed mRNA in the presence of chemical substance/The level of expressed mRNA in the absence of chemical substance (yeast gene YCR071C): 1.3
The level of expressed mRNA in the presence of chemical substance/ (ratio to absence), gene YCR083W (yeast gene YCR083W, mitochondria-located protein genes, 2 h culture with chemical): 1.8
The level of expressed mRNA in the presence of chemical substance/ (ratio to absence of chemical substance) (yeast gene YCR083W): 1.8
The level of expressed mRNA in the presence of chemical substance/The level of expressed mRNA in the absence of chemical substance (yeast gene YCR088W): 1.9
The level of expressed mRNA in the presence of chemical substance/The level of expressed mRNA in the absence of chemical substance (yeast gene YDL008W): 2.0
The level of expressed mRNA in the presence of chemical substance/ in its absence, gene YDL067C (yeast gene YDL067C, energy system protein genes, 2 h culture with the chemical, ratio to control without chemical): 0.6
The level of expressed mRNA in the presence of chemical substance/ (ratio to absence), gene YDL067C (yeast gene YDL067C, mitochondria-located protein genes, 2 h culture with chemical): 0.6
The level of expressed mRNA in the presence of chemical substance/ in its absence, gene YDL078C (yeast gene YDL078C, energy system protein genes, 2 h culture with the chemical, ratio to control without chemical): 1.0
